Reference: ChEMBL document CHEMBL1201862, “PubChem BioAssay data set” (2004)
“And” between values parts separate entries of the source, which are not always exact repeats. Equal entries are not always repeated.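 Tested at 5 concentrations; 48 h exposure; 96-well plates; endpoints linearly interpolated, else capped at highest concentration. Abbreviation: GI50, concentration required for 50% inhibition of growth.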 The source made the active and inactive calls. No stated cut-off is given here; in the data, active = GI50 up to about 1.1 µM and inactive = higher.

How the values were obtained:
Test in all cases: NCI-60 cell line screen, 48 h
[1] = system: HCT-116
[2] = system: IGROV-1
[3] = system: OVCAR-3
[4] = system: Malme-3M
[5] = system: DMS-114
[6] = system: KM12
[7] = system: MOLT-4
[8] = system: M14
[9] = system: SF-268
[10] = system: SK-MEL-5
[11] = system: SNB-19
[12] = system: SW-620
[13] = system: OVCAR-4
[14] = system: DMS-273
[15] = system: ACHN
[16] = system: A549
[17] = system: HCT-15
[18] = system: SK-OV-3
[19] = system: UACC-257
[20] = system: 786-0
[21] = system: SF-295
[22] = system: HOP-18
[23] = system: COLO 205
[24] = system: HCC 2998
[25] = system: TK-10
[26] = system: CCRF-CEM
[27] = system: NCI-H23
[28] = system: SK-MEL-2
[29] = system: HOP-62
[30] = system: SF-539
[31] = system: KM-20L2
[32] = system: K562
[33] = system: U-251
[34] = system: HL-60
[35] = system: SR
[36] = system: UACC-62
[37] = system: SN12C
[38] = system: RXF 631
[39] = system: NCI-H460
[40] = system: RXF 393
[41] = system: UO-31
[42] = system: HT-29
[43] = system: M19-MEL
[44] = system: LOX IMVI
[45] = system: SK-MEL-28
[46] = system: DLD-1
[47] = system: HOP-92
[48] = system: EKVX
[49] = system: LXFL 529
[50] = system: OVCAR-8
[51] = system: SNB-78
[52] = system: NCI-H226
[53] = system: CAKI-1
[54] = system: OVCAR-5
[55] = system: A498
[56] = system: RPMI-8226
[57] = system: NCI-H522
[58] = system: SNB-75
[59] = system: XF498
[60] = system: MDA-MB-231
[61] = system: PC-3
[62] = system: MDA-MB-435
[63] = system: Hs-578T
[64] = system: MCF7
[65] = system: NCI/ADR-RES
[66] = system: MDA-N
[67] = system: DU-145
[68] = system: T47D
[69] = system: BT-549

Measured: GI50

NC1=NN(c2ccccc2)C(=O)C1C(=O)CCC(=O)Nc1cccc(C(F)(F)F)c1 (centres undefined)
inactive: [1] > 100 µM | [2] > 100 µM | [3] > 100 µM | [4] > 100 µM | [5] > 100 µM | [6] > 100 µM | [7] > 100 µM | [8] 41.2 µM | [9] > 100 µM | [10] > 100 µM | [11] > 100 µM | [12] 42.6 µM | [13] > 100 µM | [14] > 100 µM | [15] 23.1 µM | [16] > 100 µM | [18] > 100 µM | [19] > 100 µM | [20] > 100 µM | [21] > 100 µM | [22] > 100 µM | [23] > 100 µM | [24] > 100 µM | [25] > 100 µM | [26] > 100 µM | [27] > 100 µM | [28] > 100 µM | [29] > 100 µM | [30] > 100 µM | [31] 72.6 µM | [32] 35.2 µM | [33] > 100 µM | [34] > 100 µM | [35] > 100 µM | [36] 53 µM | [37] > 100 µM | [38] > 100 µM | [39] > 100 µM | [40] > 100 µM | [41] > 100 µM | [42] > 100 µM | [43] > 100 µM | [44] 72.4 µM | [45] > 100 µM | [46] 48.8 µM | [47] > 100 µM | [48] > 100 µM | [49] 36.8 µM | [50] > 100 µM | [51] > 100 µM | [52] > 100 µM | [53] > 100 µM | [54] > 100 µM
30.8 µM: [17]

N#CCC(=O)N/N=C1/C(=O)N(c2cc(Cl)ccc2Cl)C(=O)C(=O)C1c1nc2ccccc2s1 (centres undefined)
> 100 µM: [17]
active: [40] < 0.01 µM
inactive: [1] 84.7 µM | [55] > 100 µM | [2] > 100 µM | [3] 54.6 µM | [4] > 100 µM | [5] > 100 µM | [6] > 100 µM | [7] 45.9 µM | [8] > 100 µM | [9] 88.3 µM | [10] > 100 µM | [11] 64.3 µM | [12] 73.5 µM | [13] > 100 µM | [14] > 100 µM | [15] > 100 µM | [16] > 100 µM | [18] > 100 µM | [19] > 100 µM | [56] 56.8 µM | [20] > 100 µM | [21] 94.4 µM | [22] 72.9 µM | [23] > 100 µM | [24] > 100 µM | [25] 81.8 µM | [26] 36.9 µM | [27] > 100 µM | [28] 37.9 µM | [57] 61 µM | [29] > 100 µM | [30] > 100 µM | [31] > 100 µM | [32] > 100 µM | [33] 80.9 µM | [34] 43.9 µM | [36] 29.8 µM | [37] > 100 µM | [38] 55.3 µM | [39] 95.7 µM | [41] 36.9 µM | [42] > 100 µM | [43] 77.1 µM | [58] 38 µM | [44] 64 µM | [45] > 100 µM | [46] > 100 µM | [47] 19.8 µM | [48] 43.4 µM | [49] > 100 µM | [50] 81.5 µM | [51] > 100 µM | [52] > 100 µM | [53] 29.5 µM | [54] > 100 µM

O[C@]12c3ccccc3C1CCCC2N1CCOCC1 (some centres undefined)
> 100 µM: [17]
inactive: [1] > 100 µM | [4] > 100 µM | [59] > 100 µM | [5] > 100 µM | [6] > 100 µM | [7] > 100 µM | [8] > 100 µM | [9] > 100 µM | [10] > 100 µM | [11] > 100 µM | [12] > 100 µM | [13] > 100 µM | [14] > 100 µM | [15] > 100 µM | [16] > 100 µM | [18] > 100 µM | [19] > 100 µM | [56] > 100 µM | [20] > 100 µM | [21] > 100 µM | [22] > 100 µM | [23] > 100 µM | [25] > 100 µM | [26] > 100 µM | [27] > 100 µM | [28] > 100 µM | [57] > 100 µM | [29] > 100 µM | [31] > 100 µM | [32] > 100 µM | [33] > 100 µM | [34] > 100 µM | [35] > 10 µM | [36] > 100 µM | [37] > 100 µM | [39] > 100 µM | [40] > 100 µM | [41] > 100 µM | [42] > 100 µM | [43] > 100 µM | [58] > 100 µM | [44] > 100 µM | [45] > 100 µM | [48] > 100 µM | [49] > 100 µM | [50] > 100 µM | [51] > 100 µM | [52] > 100 µM

C=C(C)C1Cc2c(cc(OC)c3c(=O)c4ccccc4n(C)c23)O1 (centres undefined)
inactive: [1] > 100 µM | [55] > 100 µM | [2] > 100 µM | [3] > 100 µM | [4] > 100 µM | [59] > 100 µM | [5] 91.8 µM | [6] > 100 µM | [8] > 100 µM | [9] > 100 µM | [10] > 100 µM | [11] > 100 µM | [12] > 100 µM | [13] > 100 µM | [14] 91.6 µM | [15] 58.3 µM | [16] > 100 µM | [18] > 100 µM | [19] > 100 µM | [56] > 100 µM | [20] > 100 µM | [21] > 100 µM | [22] > 100 µM | [23] > 100 µM | [24] > 100 µM | [25] > 100 µM | [26] > 100 µM | [27] > 100 µM | [28] > 100 µM | [57] 18.3 µM | [29] > 100 µM | [30] > 100 µM | [31] > 100 µM | [32] 57.5 µM | [33] > 100 µM | [34] > 100 µM | [35] > 100 µM | [36] 37.8 µM | [37] > 100 µM | [39] > 100 µM | [40] > 100 µM | [41] > 100 µM | [42] > 100 µM | [43] 63.7 µM | [58] 70 µM | [44] 47.3 µM | [45] 49 µM | [46] > 100 µM | [47] > 100 µM | [48] > 100 µM | [49] > 100 µM | [50] > 100 µM | [51] > 100 µM | [52] > 100 µM | [53] > 100 µM | [54] > 100 µM
83.6 µM: [17]

O=C1C(Br)=C(Br)C(=O)c2ccccc21 [2,3-Dibromo-1,4-naphthoquinone]
inactive: [1] 17.9 µM and 12.2 µM | [6] 19.6 µM and 12.8 µM | [60] 5.19 µM | [8] 15.1 µM and 8.77 µM | [61] 17.5 µM | [62] 7.98 µM | [10] 10.5 µM | [13] 17.1 µM and 11.1 µM | [63] 4.98 µM | [16] 13.6 µM | [56] 3.01 µM | [20] 18.3 µM and 9.77 µM | [22] 20.1 µM | [24] 21.7 µM and 19.1 µM | [64] 17.5 µM | [25] 17.1 µM and 12.7 µM | [28] 19.6 µM and 10.4 µM | [29] 18.5 µM and 21.5 µM | [31] 30.2 µM and 15.1 µM | [65] 22.2 µM | [34] 2.7 µM | [66] 3.84 µM | [35] 2.2 µM | [36] 16.7 µM and 9.71 µM | [38] 5.94 µM | [67] 18.7 µM | [68] 3.5 µM | [46] 15.2 µM and 18.5 µM | [69] 4.61 µM | [53] 6.34 µM | [54] 20.5 µM and 10.6 µM
17.2 µM and 11.9 µM: [17]
